Publication PMC4148168 (Journal of Medicinal Chemistry, 2014)

Tests used:
[1] = system: matrix metalloproteinases; conditions: cited from earlier work
[2] = target: T1, hCAII (Homo sapiens, UniProt P00918); assay: hCAII activity assay; format: biochemical
[3] = target: T1, hCAII; conditions: aliphatic thiols; cited from earlier work

[O-][n+]1ccccc1S [1,2-HOPTO, 1-hydroxypyridine-2-(1H)-thione]
fold more potent than 1,2-HOPO [1]: ~50 fold
fold more potent than 1,2-HOPO ([2]; against hCAII): ~50 fold

OCCS [2-mercaptoethanol]
inhibitory activity against hCAII (in words) [3]: lack inhibitory activity

Cc1cccn(O)c1=S [3-CH3-1,2-HOPTO]
fold increase in potency over unsubstituted 1,2-HOPTO ([2]; against hCAII): > 10 fold

Cc1cc(C)n(O)c(=S)c1 [4,6-CH3-1,2-HOPTO]
fold decrease in potency/affinity relative to 4-CH3-1,2-HOPTO ([2]; against hCAII): > 20 fold

Cc1ccnc(S)c1 [4-CH3-2MPyr, 2-Mercapto-4-methylpyridine]
fold decrease in potency/affinity relative to 4-CH3-1,2-HOPTO ([2]; against hCAII): ~200 fold

On1c(C(F)(F)F)cccc1=S [6-CF3-1,2-HOPTO]
inhibition of hCAII (in words) [2]: all activity is lost

Cc1cccc(=S)n1O [6-CH3-1,2-HOPTO]
fold decrease in potency relative to 1,2-HOPTO ([2]; against hCAII): 5 fold
